Test results from patent EP0089900B1, “New N-((2-oxo-1-pyrrolidinyl)acetyl)piperazines, the methods of producing such new compounds and their salts as well as pharmaceutical preparations for therapeutic use containing these compounds or salts” (PRODES S.A., priority 1982, dated 1983).

What was measured:
anesthetized dogs = assay: Electromagnetic blood flow measurement (vertebral/cerebral blood flow); type: in vivo; conditions: vertebral blood flow, administration via saphenous vein
Protocol: After orotraqueal intubation, artificial respiration with normal air was instituted using a Manley Pul- movent respirator. The correct ventilation of the dogs was checked after all the surgical procedures by determining the pO2, pCO2 and pH in arterial blood samples, as well as several times during the experiment by means of an Astrup apparatus. Blood pressure (4) was measured in left saphenous artery by means of a Bell & Howell pressure transducer, and the heart rate by means of a Beckman ECG device.
Recordings were made on an ink-writing Beckman polygraph. Left saphenous vein and right saphenous artery were canulated with polyethylene catheters for drug administration and blood collection respectively.
Vertebral blood flow was measured by a non-cannulating electromagnetic flowmeter (Carolina Medical Electronics) placed in the vertebral artery.
The Carolina digital flowmeter was connected to an Omniscribe Houston Instruments plotter.
Piracetam and nicotinic acid were used as control drugs.

animals [1] = assay: Protection against lethality: hypoxia-hypobara (decompression), survival time; type: in vivo
mouse = assay: Protection against lethality: quick decapitation, gasping time; type: in vivo; conditions: gasping time after decapitation of mouse
Text: The second trial is the quick decapitation of mouse. The head has a typical mandibular movement, known as gasping, as searching the breathing air.

animals [2] = assay: Protection against lethality: anoxia by CNK, survival time; type: in vivo
Acute toxicity LD50 = conditions: in vivo; species and route not given

Structure (SMILES): O=C(O)c1cccnc1 [Nicotinic acid, reference compound]
- effect (anesthetized dogs; no dose given): No effect

Structure (SMILES): C=CCN1CCN(C(=O)CN2CCCC2=O)CC1 [N-[(2-oxo-1-pyrrolidinyl)acetyl]-N'-allylpiperazine]
- effect (anesthetized dogs; dose 2,5 mg/kg): Active
- hypoxia hypobara (animals [1]; dose 500 mg/kg): Active
- gasping (mouse; dose 500 mg/kg): Active
- anoxia by CNK (animals [2]; dose 500 mg/kg): Active
- LD50 (Acute toxicity LD50): 4000 mg/kg

Structure (SMILES): NC(=O)CN1CCCC1=O [(2-oxo-1-pyrrolidinyl)acetamide, reference compound]
- effect (anesthetized dogs; no dose given): No effect
- hypoxia hypobara (animals [1]; dose 1000 mg/kg): No effect
- gasping (mouse; dose 1000 mg/kg): No effect
- anoxia by CNK (animals [2]; dose 1000 mg/kg): No effect

Structure (SMILES): O=C1NC(=O)C(c2ccccc2)(c2ccccc2)N1 [Diphenylhydantoine, reference compound]
- hypoxia hypobara (animals [1]; dose 100 mg/kg): Active
- anoxia by CNK (animals [2]; dose 100 mg/kg): Active

Structure (SMILES): COc1ccc(CN2CCN(C(=O)CN3CCCC3=O)CC2)cc1 [N-[(2-oxo-1-pyrrolidinyl)acetyl]-N'-(p-methoxybenzyl)piperazine]
- effect (anesthetized dogs; dose 1 mg/kg): Active
- hypoxia hypobara (animals [1]; dose 250 mg/kg): Active
- gasping (mouse; dose 250 mg/kg): Active
- anoxia by CNK (animals [2]; dose 250 mg/kg): No effect
- LD50 (Acute toxicity LD50): 1110 mg/kg

Structure (SMILES): O=C(CN1CCCC1=O)N1CCN(CC=Cc2ccccc2)CC1 [N-[(2-oxo-1-pyrrolidinyl)-acetyl]-N'-cinnamylpiperazine]
- effect (anesthetized dogs; dose 2,5 mg/kg): Active
- hypoxia hypobara (animals [1]; dose 300 mg/kg): Active
- gasping (mouse; dose 300 mg/kg): Active
- anoxia by CNK (animals [2]; dose 300 mg/kg): Active
- LD50 (Acute toxicity LD50): 1400 mg/kg
